From ChEMBL document CHEMBL1649140, “Accelerated metabolism of voriconazole and its partial reversal by cimetidine” (Antimicrob Agents Chemother, 2009)
Converted amounts (≈) assume the structure as drawn.

Columns and labels:
[1] = system: Aspergillus ustus; test: Antifungal activity against Aspergillus ustus; type: functional
[2] = Cmin in patient with invasive pulmonary aspergillosis at 9.2 mg/kg, iv administered every 12 hrs measured after 8 days; type: ADME, organism-based; set-up: dose 9.2 mg/kg, route intravenous; conditions: human, in vivo, read-out: Cmin

`C[C@@H](c1ncncc1F)[C@](O)(Cn1cncn1)c1ccc(F)cc1F` [VORICONAZOLE] gave an MIC [1] of 4 µg/mL (≈ 11.5 µM) and a concentration at 192 h [2] of 1170 ng/mL.
